# Calls of active or inactive are those of the source. The calls are words filed in the database; no cut-off is given here.
# Experiments:
# [1] = test system: K562; experiment: Induction of cell cycle arrest in human K562 cells assessed as accumulation of cells at SubG1 phase at 1.25 uM measured after 24 hrs by PI staining based flow cytometry analysis (reference value: 3.43%); format: functional
# [2] = test system: K562; experiment: Induction of cell cycle arrest in human K562 cells assessed as accumulation of cells at S phase at 2.5 uM measured after 24 hrs by PI staining based flow cytometry analysis (reference value: 20.42%); format: functional
# [3] = test system: K562; experiment: Induction of cell cycle arrest in human K562 cells assessed as accumulation of cells at G2/M phase at 5 uM measured after 24 hrs by PI staining based flow cytometry analysis (reference value: 29.44%); format: functional
# [4] = test system: K562; experiment: Induction of apoptosis in human K562 cells assessed as early apoptotic cells at 1.25 uM incubated for 24 hrs by annexinV and propidium iodide staining based flow cytometry analysis (reference value: 0.42%); format: functional
# [5] = test system: K562; experiment: Induction of apoptosis in human K562 cells assessed as early apoptotic cells at 2.56 uM incubated for 24 hrs by annexinV and propidium iodide staining based flow cytometry analysis (reference value: 0.42%); format: functional
# [6] = test system: K562; experiment: Induction of apoptosis in human K562 cells assessed as early apoptotic cells at 1.28 uM incubated for 24 hrs by annexinV and propidium iodide staining based flow cytometry analysis (reference value: 0.42%); format: functional
# [7] = test system: K562; experiment: Induction of cell cycle arrest in human K562 cells assessed as accumulation of cells at S phase at 2.56 uM measured after 24 hrs by PI staining based flow cytometry analysis (reference value: 21.74%); format: functional
# [8] = test system: K562; experiment: Induction of cell cycle arrest in human K562 cells assessed as accumulation of cells at G0/G1 phase at 2.56 uM measured after 24 hrs by PI staining based flow cytometry analysis (reference value: 46.71%); format: functional
# [9] = test system: K562; experiment: Induction of autophagy in human K562 cells assessed as increase in beclin-1 level at 1.28 to 2.56 uM measured after 24 hrs by Western blotting analysis; format: functional, cell-based; details: dose 1.28-2.56 µM
# [10] = test system: K562; experiment: Induction of cell cycle arrest in human K562 cells assessed as accumulation of cells at SubG1 phase at 0.64 uM measured after 24 hrs by PI staining based flow cytometry analysis (reference value: 2.48%); format: functional
# [11] = test system: K562; experiment: Induction of cell cycle arrest in human K562 cells assessed as accumulation of cells at G0/G1 phase at 5 uM measured after 24 hrs by PI staining based flow cytometry analysis (reference value: 46.67%); format: functional
# [12] = test system: K562; experiment: Induction of cell cycle arrest in human K562 cells assessed as accumulation of cells at S phase at 1.25 uM measured after 24 hrs by PI staining based flow cytometry analysis (reference value: 20.42%); format: functional
# [13] = test system: K562; experiment: Induction of cell cycle arrest in human K562 cells assessed as accumulation of cells at G2/M phase at 1.25 uM measured after 24 hrs by PI staining based flow cytometry analysis (reference value: 29.44%); format: functional
# [14] = test system: K562; experiment: Induction of cell cycle arrest in human K562 cells assessed as accumulation of cells at G2/M phase at 0.64 uM measured after 24 hrs by PI staining based flow cytometry analysis (reference value: 29.09%); format: functional
# [15] = test system: K562; experiment: Induction of cell cycle arrest in human K562 cells assessed as accumulation of cells at G2/M phase at 2.56 uM measured after 24 hrs by PI staining based flow cytometry analysis (reference value: 29.09%); format: functional
# [16] = test system: K562; experiment: Induction of apoptosis in human K562 cells assessed as early apoptotic cells at 0.64 uM incubated for 24 hrs by annexinV and propidium iodide staining based flow cytometry analysis (reference value: 0.42%); format: functional
# [17] = test system: K562; experiment: Induction of apoptosis in human K562 cells assessed as late apoptotic cells at 2.56 uM incubated for 24 hrs by annexinV and propidium iodide staining based flow cytometry analysis (reference value: 1.34%); format: functional
# [18] = test system: K562; experiment: Induction of apoptosis in human K562 cells assessed as late apoptotic cells at 1.25 uM incubated for 24 hrs by annexinV and propidium iodide staining based flow cytometry analysis (reference value: 1.34%); format: functional
# [19] = test system: K562; experiment: Induction of cell cycle arrest in human K562 cells assessed as accumulation of cells at SubG1 phase at 2.56 uM measured after 24 hrs by PI staining based flow cytometry analysis (reference value: 2.48%); format: functional
# [20] = test system: K562; experiment: Induction of cell cycle arrest in human K562 cells assessed as accumulation of cells at S phase at 1.28 uM measured after 24 hrs by PI staining based flow cytometry analysis (reference value: 21.74%); format: functional
# [21] = test system: K562; experiment: Induction of cell cycle arrest in human K562 cells assessed as accumulation of cells at S phase at 5 uM measured after 24 hrs by PI staining based flow cytometry analysis (reference value: 20.42%); format: functional
# [22] = test system: K562; experiment: Induction of apoptosis in human K562 cells assessed as late apoptotic cells at 2.56 uM incubated for 24 hrs by annexinV and propidium iodide staining based flow cytometry analysis (reference value: 0.82%); format: functional
# [23] = test system: K562; experiment: Induction of autophagy in human K562 cells assessed as increase in beclin-1 level at 1.28 uM measured after 24 hrs by Western blotting analysis; format: functional, cell-based
# [24] = test system: K562; experiment: Induction of apoptosis in human K562 cells assessed as late apoptotic cells at 1.28 uM incubated for 24 hrs by annexinV and propidium iodide staining based flow cytometry analysis (reference value: 0.82%); format: functional
# [25] = test system: K562; experiment: Induction of cell cycle arrest in human K562 cells assessed as accumulation of cells at S phase at 2.56 uM measured after 24 hrs by PI staining based flow cytometry analysis (reference value: 24.75%); format: functional
# [26] = test system: K562; experiment: Induction of cell cycle arrest in human K562 cells assessed as accumulation of cells at S phase at 1.28 uM measured after 24 hrs by PI staining based flow cytometry analysis (reference value: 24.75%); format: functional
# [27] = test system: K562; experiment: Induction of apoptosis in human K562 cells assessed as early apoptotic cells at 2.56 uM incubated for 24 hrs by annexinV and propidium iodide staining based flow cytometry analysis (reference value: 1.17%); format: functional
# [28] = test system: K562; experiment: Induction of cell cycle arrest in human K562 cells assessed as accumulation of cells at SubG1 phase at 1.28 uM measured after 24 hrs by PI staining based flow cytometry analysis (reference value: 2.21%); format: functional
# [29] = Cytotoxicity against African green monkey Vero cells assessed as decrease in population of viable cells at 0 to 10 uM measured after 48 hrs by SRB assay relative to control; format: toxicity, cell-based; details: chlorocebus sabaeus, dose 0-10 µM
# [30] = Cytotoxicity against African green monkey Vero cells assessed as decrease in number of viable cells at 100 uM measured after 48 hrs by SRB assay relative to control; format: toxicity, cell-based; details: chlorocebus sabaeus
# [31] = test system: K562; experiment: Induction of cell cycle arrest in human K562 cells assessed as accumulation of cells at G0/G1 phase at 1.28 uM measured after 24 hrs by PI staining based flow cytometry analysis (reference value: 46.72%); format: functional
# [32] = test system: K562; experiment: Induction of cell cycle arrest in human K562 cells assessed as accumulation of cells at SubG1 phase at 0.64 uM measured after 24 hrs by PI staining based flow cytometry analysis (reference value: 2.21%); format: functional
structure (smiles),measurement,setting,value
O=C1c2ccccc2-c2n[nH]c3cccc1c23,Activity,[1],4.71%
same,Activity,[2],19.27%
same,Activity,[3],47.08%
same,Activity,[4],0.72%
same,Activity,[5],1.05%
same,Activity,[6],0.66%
same,Activity,[7],21.55%
same,Activity,[8],37.63%
same,Activity,[9],Active
same,Activity,[10],4.68%
same,Activity,[11],28.76%
same,Activity,[12],19.52%
same,Activity,[13],41.64%
same,Activity,[14],48.84%
same,Activity,[15],37.88%
same,Activity,[16],1.59%
same,Activity,[17],3.7%
same,Activity,[18],1.47%
same,Activity,[19],2.85%
same,Activity,[20],16.61%
same,Activity,[21],20.04%
CC(C)(C)n1cc(-c2ccnc(NCCCNS(=O)(=O)c3ccc(Cl)cc3)c2)c(-c2cccc(O)c2)n1,Activity,[22],0.37%
same,Activity,[23],Active
same,Activity,[24],0.56%
same,Activity,[25],4.89%
same,Activity,[26],32.68%
same,Activity,[27],2.14%
same,Activity,[28],0.23%
same,Activity,[29],68%
same,Activity,[30],27%
same,Activity,[31],7.27%
same,Activity,[32],2.16%

# Source: ChEMBL document CHEMBL5634117 (Eur J Med Chem, 2023)
